Experimental data taken from patent US11713305B2, “Zinc sensors for in vivo imaging of beta-cell function by MRI” (The Board of Regents of the University of Texas System, priority 2017, dated 2023).

Key:
HSA = biological target: T1, HSA (Homo sapiens, UniProt P02768); test: HSA dissociation constant by fluorescence competition with dansylglycine; type: binding; settings: one site competition fitting with dansylglycine; in presence of Zn^2+; read-out: KD(GdLZnHSA)
T1 construct: purchased Sigma-Aldrich
T1 sequence (P02768 25-609): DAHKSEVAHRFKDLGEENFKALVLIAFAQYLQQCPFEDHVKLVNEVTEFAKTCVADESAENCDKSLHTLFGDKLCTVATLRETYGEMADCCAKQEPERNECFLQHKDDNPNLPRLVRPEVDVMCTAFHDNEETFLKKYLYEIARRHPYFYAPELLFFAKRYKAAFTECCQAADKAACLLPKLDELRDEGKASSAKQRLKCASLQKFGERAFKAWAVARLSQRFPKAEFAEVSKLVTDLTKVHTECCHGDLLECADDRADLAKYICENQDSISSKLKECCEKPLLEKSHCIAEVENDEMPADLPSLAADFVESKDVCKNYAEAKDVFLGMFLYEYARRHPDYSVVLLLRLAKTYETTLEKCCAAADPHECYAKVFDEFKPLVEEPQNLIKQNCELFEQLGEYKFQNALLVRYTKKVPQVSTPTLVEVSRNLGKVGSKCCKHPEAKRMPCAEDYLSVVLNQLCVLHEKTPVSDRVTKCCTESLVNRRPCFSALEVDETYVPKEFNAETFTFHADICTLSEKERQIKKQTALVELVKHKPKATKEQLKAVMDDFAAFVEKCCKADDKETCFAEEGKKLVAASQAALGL
Experimental: The procedures reported by Esqueda et al were followed (2009). A solution containing 5 μM of dansylglycine (or warfarin), 5 μM HSA, 400 μM GdL plus one equivalent of Zn^2+ was prepared in TRIS buffer. Aliquots of this solution were 2-fold diluted serially ten times by addition of a solution which contained the same concentrations of dansylglycine (warfarin) and HSA but no agent. The fluorescence of 100 μL aliquots was measured in triplicate in 96 well plates. In a similar manner solutions containing agent, HSA but no dansylglycine (warfarin), were also included. Four 100 μL aliquots of the solution containing no agent (maximum fluorescent intensity) were also measured in the same 96 well plate, along with four 100 μL aliquots of HSA in buffer.
The excitation and emission wavelengths used for the dansylglycine: 360 and 465 nm, respectively. The excitation and emission wavelengths used for warfarin: 320 and 380 nm, respectively.

[1] = r1 relaxivity measurements (20 MHz, 0.5 T, 37° C.); type: physicochemical; settings: 100 mM Tris buffer; for r1 0.6 mM HSA alone / r1 No Zn^2+: no Zn^2+; for r1 With Zn^2+ / r1 Zn^2+ + 0.6 mM HSA: CA:Zn = 1:1; for r1 No Zn^2+: no HSA
Experimental: Longitudinal relaxation times were measured using inversion recovery method on a MRS-6 NMR analyzer from the Institute Joz̆ef Stefan (Ljubljana, Slovenija) operating at 20 MHz. Relaxivity was determined by linear regression analysis of the relaxation rates of five solutions (0-1.0 mM). All samples were measured at 310 K using a warm air blower. Five different sample concentrations (0, 0.25, 0.5, 0.75, 1.0 mM) of gadolinium complex were made up in Tris buffer at 0.1 M and pH 7.4 to generate the relaxivity value for the free complex. ZnCl2 was then added to each of the above sample to produce a [Gd]:[Zn] ratio of 1:1. After 30 min of incubation at 310 K, T1 measurements were performed, from which the relaxivity of sensor-Zn^2+ was calculated. Finally, HSA was added to each of above sample to achieve HSA concentration of 0.6 mM. After further incubation at 310 K for 30 min, T1 of each sensor-Zn^2+-HSA adduct was measured, from which the relaxivity of sensor-Zn^2+-HSA adduct was calculated. Zinc titrations were performed with constant [GdL]=0.5 mM and increasing amounts of [Zn^2+]=0-2 mM in Tris buffer at 0.1 M and pH 7.4.

[2] = GdL-Zn dissociation constants by fluorescence (ZnAF-2F competition); type: binding; settings: K2 in FIG. 4; Tris buffer; read-out: KD(GdLZn)
Experimental: The procedures reported by Esqueda et al were followed (Esqueda et al., 2009). Solutions containing 1 μM of ZnAF-2F, 0.05 μM ZnCl2 and 100 μM GdL sensors were prepared in TRIS buffer. Aliquots of this solution were 3-fold diluted serially 10 times by addition of a buffered solution containing the same concentration of ZnAF-2F and ZnCl2 but no agent. The fluorescence was measured in triplicate in 96 well plates (100 μL). In a similar manner solutions containing agent, ZnCl2 but no fluorescent probe, were prepared and fluorescence measured by triplicate to account for any signal coming from the agent interacting with Zn^2+. The excitation and emission wavelengths used were 492 and 514 nm, respectively. The Zn dissociation constant was determined by fitting the data to the following equations:
[formula] F is the measured corrected fluorescence. Fmin is the minimal fluorescence observed in the competition binding experiment. Fmax corresponds to the fluorescence in absence of competitor. [GdL]o is the concentration of the zinc sensor chosen. IC50 corresponds to the concentration of competitor that decreases by 50% the % F. K′D is the dissociation constant of the competitor. [FP]o is the total concentration of the fluorescent probe. KD is the dissociation constant of the fluorescent probe and Zn^2+.

[3] = Kinetic inertness (transmetalation by Zn(II) in phosphate buffer); type: physicochemical; settings: four equivalents of Zn^2+ in phosphate buffer (pH=7), 310 K
Description: Shortly after the first confirmed clinical cases of nephrogenic systemic fibrosis (NSF), increased efforts have been made to design agents with high thermodynamic stability and kinetic inertness (Kallen et al., 2008; Reilly, 2008; Rofsky et al., 2008; Wiginton et al., 2008; Abujuden et al., 2009). The sensors shown here are very stable macrocyclic DO3A-monoamide derivatives with reported log KML>20. However, given that the agents reported here also have a high affinity for Zn^2+ ions, and Zn^2+ has been implicated as the major competing ion for transmetalation of Gd^3+ agents derived from linear polyamine ligands, the kinetic rate of Gd^3+ release is arguably the most critical factor in determining in vivo toxicity (Laurent et al., 2010). Using a previously published method (Laurent et al., 2010) consisting of incubating each agent with four equivalents of Zn^2+ in phosphate buffer (pH=7), we compared the kinetic stability of the agents reported here with the FDA-approved agent Magnevist® (GdDTPA, cf. FIG. 7).
Kinetic inertness was determined according to published procedures with minor modifications (Laurent et al., 2010; Silverio et al., 2009). Stock solutions of phosphate buffer (67 mM, pH=7.4), Gd(III) chelates (10 mM) and ZnCl2 (231 mM) were prepared first. Calculated volumes of stock solutions or water were pipetted into small glass vials to obtain a test solution of 300 μL with 30 mM phosphate, 1.5 mM Gd(III) chelate, and 6.0 mM Zn(II). Samples were measured 15 minutes after the sample temperature stabilized at 310 K. During the entire experiment, the samples inside the NMR tubes were kept in an incubator at 310 K. The T1 of the solutions was determined at 310 K and 0.47 T (20 MHz) at various time points within 7 days. As a reference, GdDTPA was analyzed under the same conditions. The R1^P relaxation rate is obtained by subtracting the diamagnetic contribution of the water relaxation (0.28 s-1) from the observed relaxation rate R1=(1/T1).

SMILES: O=C(O)CN1CCN(CCC(=O)NCCN(CCc2ccccn2)Cc2ccccn2)CCN(CC(=O)O)CCN(CC(=O)O)CC1 [GdL5]
- Kd (HSA): 43 ± 1 µM
- r1 0.6 mM HSA alone [1]: 6.3 ± 0.2 s⁻¹ mM⁻¹
- r1 With Zn^2+ [1]: 5.3 ± 0.1^b s^−1 mM^−1
- r1 Zn^2+ + 0.6 mM HSA [1]: 10.4 ± 0.3^b s^−1 mM^−1
- r1 No Zn^2+ [1]: 4.9 ± 0.1 s⁻¹ mM⁻¹
- Kd [2]: 2.57 ± 0.054 µM

SMILES: O=C(O)CN1CCN(CCC(=O)NCCN(Cc2ccccn2)Cc2ccccn2)CCN(CC(=O)O)CCN(CC(=O)O)CC1 [GdL2]
- Kd (HSA): 37 ± 1 µM
- kinetic stability against transmetalation [3]: kinetically inert
- r1 0.6 mM HSA alone [1]: 6.5 ± 0.1 s⁻¹ mM⁻¹
- r1 With Zn^2+ [1]: 5.5 ± 0.1^b s^−1 mM^−1
- r1 Zn^2+ + 0.6 mM HSA [1]: 19.8 ± 0.6^b s^−1 mM^−1
- r1 No Zn^2+ [1]: 4.9 ± 0.1 s⁻¹ mM⁻¹
- Kd [2]: 0.19 ± 0.005 µM

SMILES: O=C(O)CN1CCN(CC(=O)O)CCN(CC(=O)NCCN(Cc2ccccn2)Cc2ccccn2)CCN(CC(=O)O)CC1 [GdL1]
- Kd (HSA): 36 ± 1 µM
- kinetic stability against transmetalation [3]: kinetically inert
- r1 0.6 mM HSA alone [1]: 5.8 ± 0.1 s⁻¹ mM⁻¹
- r1 With Zn^2+ [1]: 5.2 ± 0.1^b s^−1 mM^−1
- r1 Zn^2+ + 0.6 mM HSA [1]: 17.8 ± 0.5^b s^−1 mM^−1
- r1 No Zn^2+ [1]: 4.8 ± 0.1 s⁻¹ mM⁻¹
- Kd [2]: 0.118 µM

SMILES: O=C(O)CCN1CCN(CC(=O)O)CCN(CC(=O)NCCN(Cc2ccccn2)Cc2ccccn2)CCN(CC(=O)O)CC1 [GdL3]
- Kd (HSA): 37 ± 1 µM
- r1 0.6 mM HSA alone [1]: 6.9 ± 0.2 s⁻¹ mM⁻¹
- r1 With Zn^2+ [1]: 5.4 ± 0.1^b s^−1 mM^−1
- r1 Zn^2+ + 0.6 mM HSA [1]: 21.5 ± 0.7^b s^−1 mM^−1
- r1 No Zn^2+ [1]: 5.0 ± 0.1 s⁻¹ mM⁻¹
- Kd [2]: 0.185 ± 0.005 µM

SMILES: O=C(O)CN1CCN(CC(=O)O)CCN(CC(=O)NCCN(CCc2ccccn2)Cc2ccccn2)CCN(CC(=O)O)CC1 [GdL4]
- Kd (HSA): 42 ± 1 µM
- kinetic stability against transmetalation [3]: kinetically inert
- r1 0.6 mM HSA alone [1]: 5.6 ± 0.1 s⁻¹ mM⁻¹
- r1 With Zn^2+ [1]: 5.1 ± 0.1^b s^−1 mM^−1
- r1 Zn^2+ + 0.6 mM HSA [1]: 11.4 ± 0.3^b s^−1 mM^−1
- r1 No Zn^2+ [1]: 4.7 ± 0.1 s⁻¹ mM⁻¹
- Kd [2]: 2.35 µM
